Experimental data from patent publication US20060229433A1, “Modified antiviral peptides with increased activity and cell membrane affinity” (priority 2003, published 2006).
Square brackets hold non-standard residues; d marks the D form. Peptide text beside a SMILES is read from it. Ava = NCCCCC(=O)O

What was measured:
[1] = test system: HIV-1 89.6 subtype B dualtropic (X4R5); details: PBMC, Table 5
[2] = test system: HIV-1 NL 4-3; assay: Infection of human peripheral blood lymphocytes (PBL) with NL 4-3 strain, p24 ELISA; format: cell-based
Description: Peripheral blood lymphocytes from an HIV-1 negative donor were grown as described earlier, maintained in RPMI 1640 with ultraglutamine, supplemented with IL2 (20 μg/ml), penicillin (100 U/ml), streptomycin (100 μg/ml), and 10% heat-inactivated fetal calf serum. Cells were stimulated three days in the medium supplemented with phytohemagglutinin (20 U/ml PHA P, DIFCO, Detroit Mich.).
Samples of 10^6/100 μL PBL cells were preincubated in 96-well microtiter plates in culture medium containing various concentrations of peptides. After a 1 h treatment at 37° C., 100 μl of diluted viral solution of HIV-1 was added. The cells were exposed to the virus for 1 h at 37° C. at a multiplicity of infection of 1000 TCID50 per ml. The cells were washed three times and cultured at […] of medium with the treatment in 24-well plates incubated at 37° in culture medium with the peptides in 5% CO2. The treatment was permanent before virus adsorption, during virus adsorption and after infection. The PBL culture medium was replaced every 3-4 days during three weeks always in the presence of peptide. The cell viability was assessed by cell counts and trypan-blue exclusion assay. The viral production in the culture supernatant was quantified by p24 ELISA test, as described earlier. All the experiments have been done in blind-tests. Tests have been done in duplicate.

[3] = test system: HIV-1 NL 4-3; assay: HIV-1 infection of C8166 cells (syncytia formation, p24 ELISA) with HIV-1 NL 4-3; format: cell-based; design: key: ++, +, (+), (+)− and − represent decreasing numbers of syncitia formed.; ++, +, (+), (+)− and − represent decreasing numbers of syncitia formed.; ++, +, (+), (+)− and − represent decreasing numbers of syncitia formed.; ++, +, (+), (+)− and − represent decreasing numbers of syncitia formed.; ++, +, (+), (+)− and − represent decreasing numbers of syncitia formed; details: Table 2
Description: HIV-1 NL 4-3 isolate (Adachi et al., 1986; Barré-Sinoussi et al., 1983) and highly cytopathic Zairian HIV-1 NDK isolate (Ellrodt et al., 1984) was propagated in permissive CEM cells (Nara et al., 1987). Uninfected CEM and C8166 (Salahuddin et al., 1983) were maintained in RPMI 1640 (R10) with ultraglutamine (cambrex, Vervier, Belgium), penicillin (100 U/ml), streptomycin (100 μg/ml), and 10% heat-inactivated fetal calf serum (Cambrex).
Samples of 3×10^5/100 μL C8166 cells were preincubated in 96-well microtiter plates in culture medium containing various concentrations of peptide. After a 1 h treatment at 37° C., 100 μl of diluted viral solution of HIV-1 was added. The cells were exposed to the virus for 1 h at 37° C. at a multiplicity of infection of 1000 TCID50 per ml. The cells were washed three times and cultured at 3×10^5/ml of R10 with the treatment in 24-well plates incubated at 37° C. C8166 culture medium was replaced at Day-4 post-infection. The treatment was permanent before virus adsorption, during virus adsorption and after infection. Assays on C8166 cells have been performed at least twice and in duplicate. Toxicity was evaluated by daily cell count and trypan-blue exclusion assay. Infection of C8166 T-cells with HIV-1 was assessed by virus-induced cytopathic effects (syncytia formation) and by quantification of cell free p24 viral protein in the culture supernatants. Measurements of HIV-1 p24^gag concentration in the culture supernatants were achieved by ELISA (ALLIANCE® HIV-1 p24 kit, Perkin Elmer, life sciences, USA).

Row | SMILES | IC50 [1] [µM] | IC100 [1] [µM] | IC50 ([2]; PBL, NL 4-3 strain, Table 4) [µM] | IC100 ([2]; PBL, NL 4-3 strain, Table 4) [µM] | IC100 ([2]; text b43 on PBL results) [µM] | Day 4 syncitia formed ([3]; 1 μM) | Day 5 syncitia formed ([3]; 1 μM) | Day 6 syncitia formed ([3]; 1 μM) | Day 7 syncitia formed ([3]; 1 μM) | Day 4 syncitia formed ([3]; 5 μM) | Day 5 syncitia formed ([3]; 5 μM) | Day 6 syncitia formed ([3]; 5 μM) | Day 7 syncitia formed ([3]; 5 μM) | IC100 ([2]; on PBL) [µM]
1 | C[C@H](NC(=O)[C@H](CCCNC(=N)N)NC(=O)CNC(=O)[C@@H]1CCCN1C(=O)CN)C(=O)N[C@@H](Cc1ccccc1)C(=O)NCCCCC(=O)O [SPC3 monomer valeric acid, GPGRAF-NHCH2CH2CH2CH2COOH] (H-GPGRAF[Ava]-OH; N-terminus assumed) | 0.01 | 0.5 | 0.02 | 0.1 | 0.1 |  |  |  |  |  |  |  |  | 
2 | C[C@H](NC(=O)[C@H](CCCNC(=N)N)NC(=O)CNC(=O)[C@@H]1CCCN1C(=O)CN)C(=O)N[C@@H](Cc1ccccc1)C(=O)NCCCC[C@H](NC(=O)[C@H](Cc1ccccc1)NC(=O)[C@H](C)NC(=O)[C@H](CCCNC(=N)N)NC(=O)CNC(=O)[C@@H]1CCCN1C(=O)CN)C(=O)NCCCC[C@H](NC(=O)[C@H](CCCCNC(=O)[C@H](Cc1ccccc1)NC(=O)[C@H](C)NC(=O)[C@H](CCCNC(=N)N)NC(=O)CNC(=O)[C@@H]1CCCN1C(=O)CN)NC(=O)[C@H](Cc1ccccc1)NC(=O)[C@H](C)NC(=O)[C@H](CCCNC(=N)N)NC(=O)CNC(=O)[C@@H]1CCCN1C(=O)CN)C(=O)NCCCC[C@H](NC(=O)[C@H](CCCCNC(=O)[C@H](CCCCNC(=O)[C@H](Cc1ccccc1)NC(=O)[C@H](C)NC(=O)[C@H](CCCNC(=N)N)NC(=O)CNC(=O)[C@@H]1CCCN1C(=O)CN)NC(=O)[C@H](Cc1ccccc1)NC(=O)[C@H](C)NC(=O)[C@H](CCCNC(=N)N)NC(=O)CNC(=O)[C@@H]1CCCN1C(=O)CN)NC(=O)[C@H](CCCCNC(=O)[C@H](Cc1ccccc1)NC(=O)[C@H](C)NC(=O)[C@H](CCCNC(=N)N)NC(=O)CNC(=O)[C@@H]1CCCN1C(=O)CN)NC(=O)[C@H](Cc1ccccc1)NC(=O)[C@H](C)NC(=O)[C@H](CCCNC(=N)N)NC(=O)CNC(=O)[C@@H]1CCCN1C(=O)CN)C(=O)NCCC(=O)O [SPC3, (GPGRAF)8-K4-K2-K-βA-OH, reference compound] | 0.06 | 0.5 | 0.01 | 0.1 | 2 | (+) | + | ++ | ++ | − | (+) | + | ++ | 2
